Experimental findings from EP2236511A2, “LIGANDS OF ALPHA-ADRENOCEPTORS AND OF DOPAMINE, HISTAMINE, IMIDAZOLINE AND SEROTONIN RECEPTORS AND THE USE THEREOF” (priority 2007, dated 2009) are described below.

Counter-ions that a name gives are not always drawn. Like-named read-outs stand apart in the source and are kept apart here.

Experiment [1] deals with T1, human α1D receptor (Homo sapiens, UniProt P25100).
T1 construct: expressed in transfected cells; host or cells: HEK-293
T1 sequence (P25100 1-572): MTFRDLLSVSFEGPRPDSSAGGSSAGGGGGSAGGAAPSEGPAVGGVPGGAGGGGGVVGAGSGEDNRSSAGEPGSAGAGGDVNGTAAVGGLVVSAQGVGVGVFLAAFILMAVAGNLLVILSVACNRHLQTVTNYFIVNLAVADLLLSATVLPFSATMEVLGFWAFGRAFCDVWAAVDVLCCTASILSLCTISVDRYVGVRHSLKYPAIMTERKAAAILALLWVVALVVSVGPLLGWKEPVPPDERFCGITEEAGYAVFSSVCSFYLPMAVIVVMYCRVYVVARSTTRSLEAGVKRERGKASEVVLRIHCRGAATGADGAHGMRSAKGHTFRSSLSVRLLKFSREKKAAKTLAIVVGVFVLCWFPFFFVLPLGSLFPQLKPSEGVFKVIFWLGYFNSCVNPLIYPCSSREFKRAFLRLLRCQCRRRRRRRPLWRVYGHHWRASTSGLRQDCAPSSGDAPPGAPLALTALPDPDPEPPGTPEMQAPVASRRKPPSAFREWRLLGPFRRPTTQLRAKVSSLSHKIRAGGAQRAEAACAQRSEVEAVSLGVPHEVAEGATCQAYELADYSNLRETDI
The experiment can be described thus: Radioligand binding to adrenergic receptor α1D ([3H] Prazosin, HEK-293 membranes). As to conditions: for nH: Receptor α1D. The source says:
6-C. […] For this purpose sDNA of human α1D receptor is expressed in HEK-293 cells, as it was described in [TL Theroux, TA Esbenshade, RD Peavy and KP Minneman. Coupling efficiencies of human alpha 1-adrenergic receptor subtypes: titration of receptor density and responsiveness with inducible and repressible expression vectors. Mol Pharmacol.; 50: 1376-1387, 1996]. […] Characterization of an α1D-adrenoceptor mediating the contractile response of rat aorta to noradrenaline. […] Prazosin is used as positive control.

Experiment [2] has as its target T2, human α2A receptor (Homo sapiens, UniProt P08913).
T2 construct: expressed in transfected cells; host or cells: Sf9
T2 sequence (P08913 1-465): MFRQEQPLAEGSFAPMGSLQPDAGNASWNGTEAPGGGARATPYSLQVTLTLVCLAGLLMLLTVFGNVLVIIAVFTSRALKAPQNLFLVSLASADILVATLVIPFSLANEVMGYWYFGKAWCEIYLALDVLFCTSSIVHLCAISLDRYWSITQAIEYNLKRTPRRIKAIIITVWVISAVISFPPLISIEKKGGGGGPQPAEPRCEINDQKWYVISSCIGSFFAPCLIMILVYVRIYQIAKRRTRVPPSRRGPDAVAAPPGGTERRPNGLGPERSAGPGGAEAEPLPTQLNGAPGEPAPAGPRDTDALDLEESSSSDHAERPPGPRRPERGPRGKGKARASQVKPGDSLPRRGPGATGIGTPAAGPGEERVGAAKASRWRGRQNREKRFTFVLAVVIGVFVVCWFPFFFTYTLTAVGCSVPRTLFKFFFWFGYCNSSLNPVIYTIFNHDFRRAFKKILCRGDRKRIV
Briefly: Radioligand binding to adrenergic receptor α2A ([3H] MK-912, Sf9 membranes). As to conditions: for nH: Receptor α2A. The text has this:
For this purpose sDNA of human α2A receptor is expressed in Sf9 cells, as described in [Uhlen S, Porter AC and Neubig RR. […] J Pharmacol ExpTher. […] J Pharmacol ExpTher. […] Yohimbine is used as positive control.

In experiment [3] the target is T3, human H2 receptor (Homo sapiens, UniProt P25021).
T3 construct: expressed in transfected cells; host or cells: CHO-K1
Briefly: Radioligand binding to histamine receptor H2 ([125I] Aminopotentidine, CHO-K1 membranes). As to conditions: for inhibition at 10 µM: read-out: Histamine receptors, % inhibition H2. The text has this: Proc Natl Acad Sci USA. 87(5): 1658-1662, 1990]. […] Proc Natl Acad Sci USA. 87(5): 1658-1662, 1990]. […] Tiotidine is used as positive control.

For experiment [4], the target named is T4, recombinant human 5-HT2B receptor (Homo sapiens, UniProt P41595).
T4 construct: expressed in transfected cells; host or cells: CHO-K1
Briefly: Radioligand binding to serotonin receptor 5-HT2B ([3H] Lysergic acid diethylamide, CHO-K1 membranes).

Experiment [5] has as its target T5, recombinant human 5-HT2C receptor (Homo sapiens, UniProt P28335).
T5 construct: expressed in transfected cells; host or cells: CHO-K1
T5 sequence (P28335 33-458): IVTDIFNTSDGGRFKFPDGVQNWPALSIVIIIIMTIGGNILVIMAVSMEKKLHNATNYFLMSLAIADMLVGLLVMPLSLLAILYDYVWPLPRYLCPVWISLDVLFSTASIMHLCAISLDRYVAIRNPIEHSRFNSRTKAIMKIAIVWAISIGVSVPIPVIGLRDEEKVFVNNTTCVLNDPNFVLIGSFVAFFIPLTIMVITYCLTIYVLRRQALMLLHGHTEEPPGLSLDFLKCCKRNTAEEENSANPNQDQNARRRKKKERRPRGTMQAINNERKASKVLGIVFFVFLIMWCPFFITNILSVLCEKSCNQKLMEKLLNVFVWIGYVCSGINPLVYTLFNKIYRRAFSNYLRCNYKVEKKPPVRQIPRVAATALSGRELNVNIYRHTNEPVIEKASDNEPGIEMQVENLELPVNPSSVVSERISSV
Briefly: Radioligand binding to serotonin receptor 5-HT2C ([3H] Mesulergine, CHO-K1 membranes). As to conditions: for nH: 5-HT2C. The text has this: J Neurochem. 69: 1449 - 1458, 1997]. […] SB242084 is used as positive control.

The target of experiment [6] is T6, adrenergic receptor α1A (Rattus norvegicus, UniProt P43140).
T6 construct: membrane species from rat submaxillary glands (rat of Wistar breed) are prepared; from tissue; host or cells: rat (Wistar) submaxillary gland
T6 sequence (P43140 1-466): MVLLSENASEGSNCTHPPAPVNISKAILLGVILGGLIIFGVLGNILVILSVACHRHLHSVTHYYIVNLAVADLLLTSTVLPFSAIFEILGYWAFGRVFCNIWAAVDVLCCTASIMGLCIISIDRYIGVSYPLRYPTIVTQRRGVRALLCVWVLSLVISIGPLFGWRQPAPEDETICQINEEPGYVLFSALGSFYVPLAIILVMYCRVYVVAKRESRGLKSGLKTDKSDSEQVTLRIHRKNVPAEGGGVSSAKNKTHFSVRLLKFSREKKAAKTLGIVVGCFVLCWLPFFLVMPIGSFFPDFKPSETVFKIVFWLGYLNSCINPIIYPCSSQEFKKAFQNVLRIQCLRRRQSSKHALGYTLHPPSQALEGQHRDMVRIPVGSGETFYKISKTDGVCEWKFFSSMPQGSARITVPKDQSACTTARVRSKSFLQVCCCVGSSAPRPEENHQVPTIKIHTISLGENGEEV
The experiment can be described thus: Radioligand binding to adrenergic receptor α1A ([3H] Prazosin, rat submaxillary gland membranes). As to conditions: for nH: Receptor α1A. As to the method:
Determination of investigated compounds' binding to α1A receptor was carried out according to the method described in [Michel AD, Loury DN and Whiting R1. Identification of a single α1A-adrenoceptor corresponding to the α1A-subtype in rat submaxillary gland. […] Prazosin is used as positive control.

[7] abbreviates: read-out: α-Adrenoceptor, % inhibition α1D.
Setting [8] is: read-out: α-Adrenoceptor, % inhibition α2A.
[9] abbreviates: read-out: α-Adrenoceptor, % inhibition α1A.

T4 sequence (P41595 whole entry): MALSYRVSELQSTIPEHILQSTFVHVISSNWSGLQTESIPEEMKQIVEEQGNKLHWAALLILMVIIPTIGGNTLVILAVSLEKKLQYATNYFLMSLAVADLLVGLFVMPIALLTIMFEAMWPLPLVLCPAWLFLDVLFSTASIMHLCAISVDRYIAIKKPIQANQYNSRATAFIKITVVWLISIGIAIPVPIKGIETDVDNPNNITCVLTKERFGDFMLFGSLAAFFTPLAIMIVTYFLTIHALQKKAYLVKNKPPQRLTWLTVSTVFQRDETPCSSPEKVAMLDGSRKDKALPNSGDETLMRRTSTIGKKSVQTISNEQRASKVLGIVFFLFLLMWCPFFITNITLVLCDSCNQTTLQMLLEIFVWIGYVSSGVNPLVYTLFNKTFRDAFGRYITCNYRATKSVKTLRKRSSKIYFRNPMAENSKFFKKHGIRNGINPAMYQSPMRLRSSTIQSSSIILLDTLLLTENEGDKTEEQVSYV
T3 sequence (P25021 whole entry): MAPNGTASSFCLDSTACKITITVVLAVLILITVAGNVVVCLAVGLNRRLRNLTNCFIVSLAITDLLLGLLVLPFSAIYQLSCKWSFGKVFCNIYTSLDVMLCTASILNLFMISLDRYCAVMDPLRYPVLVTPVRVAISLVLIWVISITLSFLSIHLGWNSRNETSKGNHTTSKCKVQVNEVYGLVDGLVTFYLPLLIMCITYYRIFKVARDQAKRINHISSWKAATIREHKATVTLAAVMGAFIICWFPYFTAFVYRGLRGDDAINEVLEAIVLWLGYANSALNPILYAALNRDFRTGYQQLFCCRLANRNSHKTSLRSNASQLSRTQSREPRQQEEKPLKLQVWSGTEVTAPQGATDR

The inhibition is the change of the read-out against control, counted positive when it falls. Turning to `Cc1ccc2c(c1)[C@@H]1CN(C)CCC[C@@H]1N2CCc1ccc(C)nc1` (relative stereo) [1.6.1(2)·3HCl], the inhibition at 10 µM in experiment [1] (setting [7]) is 87%; in experiment [2] (setting [8]) it was 82%; in experiment [3] it was 66%; in experiment [4] (read-out: 5-HT2B % inhibition), -2%; in experiment [5] (read-out: 5-HT2C % inhibition), 4%.
For the compound `Cc1ccc2c(c1)c1c(n2CCc2ccccn2)CCN(C)C1` [1.1.2(2-3)·2HCl], the inhibition at 10 µM in experiment [6] (setting [9]) amounted to 81%; in experiment [1] (setting [7]) it was 92%; in experiment [2] (setting [8]) it was 93%; in experiment [3], 82%. In addition, the nH in experiment [4] (5-HT2B) amounted to 0.913. Moreover, the figures for the inhibition at 1 µM in experiment [4] (read-out: 5-HT2B % inhibition) and in experiment [5] (read-out: 5-HT2C % inhibition) were 89% and 96%, respectively.
`CN1CCc2c(c3ccccc3n2Cc2ccccc2)C1.Cl` [1.9(1)·HCl, 5-benzyl-2-methyl-2,3,4,5-tetrahydro-1H-pyrido[4,3-b]indole hydrochloride]: the inhibition at 10 µM in experiment [6] (setting [9]) stood at 70%; in experiment [2] (setting [8]), 100%; in experiment [3], 97%; in experiment [4] (read-out: 5-HT2B % inhibition, 10 µM ligand), 99%; in experiment [5] (read-out: 5-HT2C % inhibition), 97%. In addition, the nH in experiment [4] (5-HT2B) is recorded as 0.836; in experiment [5] it was 1.21. Moreover, in experiment [5] (read-out: 5-HT2C % inhibition), the inhibition at 0.1 µM is 79%.
With `Cc1ccc2c(c1)c1c(n2CCc2ccccc2)CCN(C)C1` [1.1.2(1-2)·HCl, 2,8-dimethyl-5-phenethyl-1,2,3,4-tetrahydro-1H-pyrido[4,3-b]indole hydrochloride], the inhibition at 10 µM in experiment [6] (setting [9]) is 99%; in experiment [1] (setting [7]) it was 102%; in experiment [2] (setting [8]) it was 95%; in experiment [3] it was 102%; in experiment [4] (read-out: 5-HT2B % inhibition) it was 100%. Moreover, the nH in experiment [4] (5-HT2B) is 0,868.
Regarding `Cc1ccc2c(c1)[C@@H]1CN(C)CCC[C@@H]1N2CCc1cccnc1` (relative stereo) [1.6.1(1)·3HCl], the inhibition at 10 µM in experiment [6] (setting [9]) was 90%; in experiment [1] (setting [7]) it was 90%; in experiment [2] (setting [8]), 84%; in experiment [3] it was 48%. For the same compound, the inhibition at 1 µM in experiment [5] (read-out: 5-HT2C % inhibition) was found to be 95%.
Turning to `Cc1ccc2c(c1)c1c(n2CCc2ccccn2)CCCN(C)C1` [1.2.2(2-2)], the “α-Adrenoceptor, % inhibition α1A” value in experiment [6] (10 µM ligand) turned out to be 64%. The “α-Adrenoceptor, % inhibition α1D” value in experiment [1] (10 µM ligand) is listed as 63%. For the same compound, the “α-Adrenoceptor, % inhibition α2A” value in experiment [2] (10 µM ligand) was determined as 90%.
By IC50 is commonly meant the concentration at which inhibition is half-maximal. What is called Ki is the equilibrium dissociation constant of an inhibitor or competing ligand from its target. For the compound `CN1CCc2c(c3ccccc3n2Cc2ccccc2)C1` [1.9(1)·1/2NDSA, bis-(5-benzyl-2-methyl-2,3,4,5-tetrahydro-1H-pyrido[4,3-b]indole) naphthalene-1,5-disulfonate], the nH is 1,08 in experiment [6]; 1,05 in experiment [1]; 1,13 in experiment [2]; 0.552 in experiment [4] (5-HT2B); 0.987 in experiment [5]. Further, the inhibition at 1 µM in experiment [6] (setting [9]) was found to be 67%. The inhibition at 3 µM in experiment [1] (setting [7]) worked out at 70%. In addition, the inhibition at 0.3 µM in experiment [2] (setting [8]) amounted to 73%. Further, the “Histamine receptors, % inhibition H2” value in experiment [3] (10 µM ligand) turned out to be 97%. For the same compound, in experiment [4] (5-HT2B), the IC50 turned out to be 31.4 nM. In experiment [4] (5-HT2B), the Ki turned out to be 20 nM.
Consider `Cc1ccc2c(c1)c1c(n2CCc2ccc(C)nc2)CCN(C)C1` [1.1.2(4-2)·2HCl], for which the inhibition at 10 µM in experiment [6] (10 µM ligand, read-out: α-Adrenoceptor, % inhibition α1A) turned out to be 97%; in experiment [2] (10 µM ligand, read-out: α-Adrenoceptor, % inhibition α2A), 95%; in experiment [4] (10 µM ligand, read-out: 5-HT2B % inhibition), 47%; in experiment [5] (10 µM ligand, read-out: 5-HT2C % inhibition), 76%. The values for the nH in experiment [6] and in experiment [2] were 1.12 and 0.828, respectively.
For `Cc1ccc(CCn2c3c(c4cc(C)ccc42)CN(C)CC3)cc1` [1.1.2(1-3), 2,8-dimethyl-5-[2-(4-methylphenyl)-ethyl]-1,2,3,4-tetrahydro-1H-pyrido[4,3-b]indole], the nH in experiment [6] is reported as 1,26; in experiment [1], 1,21; in experiment [2], 1.12. Moreover, in experiment [4] (10 µM ligand), the 5-HT2B % inhibition came to 95%. The 5-HT2C % inhibition in experiment [5] (10 µM ligand) is given as 98%.
